The subject of experiment [1] is guinea pig distal colon. In words: fecal pellet propulsion motility assay in isolated distal colon (GIMM). On the procedure:
Gastrointestinal Motility Assays: Segments (˜10 cm long) of distal colon were pinned on either end in a Sylgard-lined 50 mL organ bath, continuously perfused with oxygenated Krebs solution (rate: 10 mL min^−1) and maintained at temperatures between 36 and 37° C. Tissues were initially allowed to equilibrate for 30 mins in re-circulating Krebs solution. Colonic motility was studied using the Gastronintestinal Motility Monitoring system (GIMM; Med-Associates Inc., Saint Albans, Vt., USA), which included a digital video camera (Catamount Research and Development Inc, St Albans, Vt., USA) to film fecal pellet propulsion. Trials were separated by 5-min recovery periods between successive pellet runs. The GIMM system software calculated velocities by tracking pellets as they traversed colon segments. After initial equilibration, five pellet propulsion trials in vehicle solution were obtained to determine the basal velocity for each tissue preparation. To reduce variations between runs and experiments, the values obtained were used to generate a normalized basal velocity by dividing the values of the 4th-5th runs by the value of the 1st-2nd runs. Garcinia buchananii stem bark extract and test compounds dissolved in 100 mL of Krebs solution were superfused either into the organ bath or into the lumen of the colon using polyethylene tubing [PE 205; outside diameter 9.5 mm (BD-Worldwide, Sparks, Md., USA)]. The effects of extract and test compounds were evaluated by obtaining velocities of four trials taken at 5-min intervals (5-20 min) Normalized velocity data for these treatments were obtained by dividing the test velocities acquired by the average velocity of the five pellet propulsion runs performed in vehicle solution (runs 1-5, above). Normalized data became ratios without units, and were presented as a percent velocity of basal activity for each tissue. Velocities of pellet propulsion were also studied during washout of tissue with Krebs solution (after extract or test compound application) for 20 min
A segment (˜10-12 cm long) of distal colon was pinned on either end in a Sylgard-lined 50 mL organ bath being continuously perfused with oxygenated Krebs solution (rate: 10 mL min^−1) and maintained at temperatures between 36-37° C. Nail-polish-coated guinea-pig pellets similar in shape and size to the “native” colonic fecal pellets were used to determine propulsive velocities using the Gastrointestinal Motility Monitoring system (Med-Associates Inc., Saint Albans, Vt., USA) for filming pellet propulsion as described by Hoffman and others (2010). Velocity was calculated based on the time required for pellets to traverse 5-6 cm of the central colon segment ending 1 cm from the aboral end. Data collection started after 30 minutes of equilibration. A five-minute interval was used to allow equilibration of motor activity between successive pellet runs. Baseline velocities were measured for 20 minutes.
In intraluminal studies, the aqueous extract was prepared by suspending 2 g of G. buchananii bark powder in 100 mL Krebs, whereas 1 g G. buchananii bark powder prepared in the same manner was used for bath (serosal) applications. The extract-Krebs mixture was continuously stirred for 30 minutes and filtered using analytical filter paper (Schleicher and Schuell Blue Ribbon filter paper 589/3; 0.2 μm retention). Garcinia buchananii extract and test compounds were delivered to isolated colons in Krebs solution, and evaluated for effects on pellet propulsion during 20-25 minute time intervals. Intraluminal drug deliveries (350 μL min^−1 Krebs solution) were performed using polyethylene tubing (PE 205; outside diameter 9.5 mm) inserted ˜1.5 cm into the oral end of the segments. In bath deliveries, G. buchananii extract and test compounds were superfused directly into the organ bath. Studies involving PTLC fractions were performed using the organ bath delivery method only.

Experiment [2] relates to Wistar rats with high-lactose diet-induced diarrhea. In words: high-lactose diet (HLD) induced diarrhea in rats. The class given is in vivo. As for the experimental part: A high-lactose (35%) diet induced diarrhea in Wistar rats, which were then treated with either G. buchananii bark extract (0.1, 0.5, 1.0 and 5.0 g bark powder) or its anti-motility fractions isolated using preparative thin layer chromatography; termed PTLC1 (15 mg) and PTLC5 (3.8 mg) or loperamide (8.4 mg), each dissolved in 1 liter of tap water. Numerous parameters were measured in each condition including consistency, fluid and mucus content of feces, body weight, water and food consumption, urine production and bloating.
The study was conducted in accordance with the regulations of the University of Idaho Institutional Animal Care and Use Committee (IACUC). Sixty two, 10 week old Wistar rats were obtained from Harlan Animal Research Laboratory (Hayward Calif., USA). Rats were individually caged (23-24° C.; 12:12 h light-dark cycle) and quarantined for one week. Rats were fed a standard chow diet ad libitum (Animal Specialties, Hubbard, Oreg., USA) and had free access to water for four days prior to the inducement of diarrhea. A high-lactose diet (HLD) containing 35% lactose in place of starch (3.004 Kcal; Purina Mills; Richmond, Ind., USA) was fed to 52 rats. Diarrhea was induced within 24-48 hours after consuming the diet. Rats were monitored for changes in consistency of pellets and stool mass, fecal fluid and urine production (mass; g and volume; ml). Rats were considered diarrheic if they produced watery stools, soft, yellowish stools compared to normal, pliable, soft, well-formed pellets as previously described by other researchers.
Four days after introducing rats to a HLD, diarrheic rats were treated using varying doses of G. buchananii extract, its anti-motility fractions isolated using preparative thin layer chromatoghraphy (PTLC1 & PTLC5) and loperamide for standard comparison. Rats were maintained on a HLD during the entire treatment period.
Garcinia buchananii bark powder was prepared from stem barks collected from trees in their natural habitat in Karagwe, Tanzania, as described previously by Balemba, OB and colleagues, 2010. A sample can be found at the University of Idaho Stillinger herbarium (voucher #159918). 0.1 g, 0.5 g, 1.0 g and 5.0 g of G. buchananii bark powder were each suspended in 1 L of tap water, stirred for 30 minutes and filtered. The filtrate was then immediately used to treat rats against lactose-induced diarrhea.
Twenty nine rats on a HLD were randomly assigned and treated with varying doses of G. buchananii extract (0.1 g, 0.5 g, 1 g, and 5 g extract; n=6-10 rats per group). Eight rats were treated with PTLC1 or PTLC5 (each n=4) at a dose of 15 mg and 3.8 mg in 100 mL tap water, respectively. For control treatments, seven rats were treated with loperamide (8.4 mg/L tap water), eight rats were left untreated (HLD control) and ten rats received control standard chow diets (SD). Rats were treated for a total of four days, receiving freshly made drugs every two days.
We studied the impact of a HLD and all the treatments on the consistency, form and appearance of feces. Body weight, food and water intake were measured every two days for the entire period. Diarrheic rats treated with G. buchananii (0.1 g/l, 1.0 g/l) and loperamide were used to study fecal fluid content, stool mass and urine production compared with untreated rats on a HLD and SD control diets (n=3-5). To achieve this, pellets/stools and urine were allowed to drop on non-leaking, polyester plastic mats spread in metal trays placed beneath wired cages housing rats. Pellets/stools and urine were collected every three hours, for 24 hours, for a 12-day period. Disposable polyethylene transfer pipettes (5.5 mL) were used to collect urine. Pellets/stools were collected by using custom-made pieces of Inkjet transparencies. The samples were stored in disposable, polypropylene containers (100 mL) tightly capped to avoid loss of moisture due to vaporization. […]

The mark [3] stands for this setting: bath (serosal) application, 20 min, extract 1 g/100 mL Krebs, PTLC1 15 mg, PTLC5 3.8 mg/100 mL, RS-56812 50 nmol/L, cisapride 100 nmol/L, CJ-033466 300 nmol/L, granisetron 1 μmol/L, ondansetron 0.5 μmol/L, GR-113808 5 μmol/L.
[4] abbreviates: intraluminal delivery, 5 min, extract 2 g bark powder/100 mL Krebs, 5-HT 0.5 μmol/L, RS-56812 50 nmol/L, cisapride 100 nmol/L, CJ-033466 300 nmol/L, GR-113808 5 μM.
The mark [5] stands for this setting: intraluminal delivery, 15 min, extract 2 g bark powder/100 mL Krebs, drug concentrations as at 5 min.
Where [6] appears, read: intraluminal delivery, 20 min, extract 2 g bark powder/100 mL Krebs, drug concentrations as at 5 min.
Setting [7] is: HLD rats, PTLC1 15 mg, PTLC5 3.8 mg in 100 mL tap water, loperamide 8.4 mg/L, after 24 hrs to the 4th day.
[8] abbreviates: HLD rats, loperamide 8.4 mg/L, PTLC1 15 mg/100 mL, PTLC5 3.8 mg/100 mL.

Several values for one entry are separate records, joined by “and”; a condition that tells them apart may be missing. Identical values can stand only once. Counter-ions that a name gives are not always drawn.

As to `Cn1cc(C(=O)OCC2CCN(CCNS(C)(=O)=O)CC2)c2ccccc21` [GR-113808], the “pellet propulsion, percent of normalized baseline pellet velocity” value in experiment [1] (setting [3]) is recorded as “did not alter pellet propulsion”; in experiment [1] (setting [4]) it was 109.3 ± 6.1%; in experiment [1] (setting [5]), 93.2 ± 3.6%; in experiment [1] (setting [6]), 91.7 ± 3.1%. Further, the “inhibition of pellet propulsion” value in experiment [1] (intraluminal, after 20 minutes, extract 2 g/100 mL Krebs, granisetron 2 μM, GR-113808 5 μM) is recorded as 10%.
With `COc1cc(N)c(Cl)cc1C(=O)NC1CCN(CCCOc2ccc(F)cc2)CC1OC` (centres unmarked) [cisapride, Cisapride], the “pellet propulsion, percent of normalized baseline pellet velocity” value is 85.0±5.5% and 85.0±5.9% in experiment [1] (setting [3]); 115.6 ± 4.9% in experiment [1] (setting [4]); 109.6 ± 9.3% in experiment [1] (setting [5]); 122.0 ± 8.2% in experiment [1] (setting [6]). The “inhibition of pellet propulsion” value in experiment [1] (serosal (bath) application, 20 min, extract 1 g, PTLC1 15 mg, PTLC5 3.8 mg per 100 mL Krebs, cisapride 100 nmol/L, RS-56812 50 nmol/L) turned out to be 15%.
Consider `CN1C2CCCC1CC(NC(=O)c1nn(C)c3ccccc13)C2.Cl` (centres unmarked) [granisetron, granisetron hydrochloride], for which the “pellet propulsion, percent of normalized baseline pellet velocity” value in experiment [1] (setting [3]) was found to be 101.4±7.0%; in experiment [1] (setting [4]) it was 99.3 ± 4.2%; in experiment [1] (setting [5]), 92.4 ± 1.4%; in experiment [1] (setting [6]) it was 86.5 ± 3.6%.
For `CN(C)C(=O)C(CCN1CCC(O)(c2ccc(Cl)cc2)CC1)(c1ccccc1)c1ccccc1` [loperamide], in experiment [2] (HLD rats, all doses), the “intestinal bloating / cecum distension” value was “reduced cecum distension”. Besides, in experiment [2] (HLD rats, loperamide 8.4 mg/L), the cecum maximum diameter is on record as 2.0+/−0.2 cm and the fecal fluid content was 43.8±6.5%. Moreover, in experiment [2] (setting [7]), the “Form of stool: Hardened normal pellets” value is given as “++++++”, the “Form of stool: Loose stool with structural form of pellet” value is “−”, the “Form of stool: Loose stools + mucous (non-structural stool)” value is listed as “−” and the “Form of stool: Soft formed pellets” value is “−”. In addition, in experiment [2] (setting [7]), the “Form of stool: Watery diarrhea + mucous (incontinence or profuse)” value is given as “−”. Besides, in experiment [2] (setting [8]), the body weight change was -1.33 ± 0.64 g, the food consumption was found to be 28.50 ± 3.58 g and the “water (fluid) consumption” value was found to be 43.96 ± 7.66 mL. Further, the “reversal of weight loss versus untreated HLD rats” value in experiment [2] (loperamide 8.4 mg/L, not significant) is listed as 1.78 g.
Regarding `Cc1cn2c(N)c(Cl)cc(C(=O)NCC3CCN(CC(C)C)CC3)c2n1` [CJ-033466], the “pellet propulsion, percent of normalized baseline pellet velocity” value in experiment [1] (setting [3]) is listed as 102.8±6.5%; in experiment [1] (setting [4]), 132.7 ± 7.1%; in experiment [1] (setting [5]) it was 112.1 ± 6.7%; in experiment [1] (setting [6]) it was 116.6 ± 5.6%.
As for `NCCc1c[nH]c2ccc(O)cc12` [Compound 5-HT, Serotonin hydrochloride], the “pellet propulsion, percent of normalized baseline pellet velocity” value is 118.3 ± 16.2% in experiment [1] (setting [4]), 117.6 ± 13.5% in experiment [1] (setting [5]) and 114.3 ± 11.9% in experiment [1] (setting [6]).
Take `Cc1nccn1CC1CCc2c(c3ccccc3n2C)C1=O` (centres unmarked) [ondansetron, ondansetron hydrochloride]: in experiment [1] (setting [3]), the “pellet propulsion, percent of normalized baseline pellet velocity” value was 111.3±9.8%.
Regarding `Cn1cc(C(=O)C(=O)NC2CN3CCC2CC3)c2ccccc21` (centres unmarked) [RS-56812], the “pellet propulsion, percent of normalized baseline pellet velocity” value in experiment [1] (setting [3]) was found to be 103.3±4.7%; in experiment [1] (setting [4]), 119.7 ± 5.2%; in experiment [1] (setting [5]), 119.6 ± 5.4%; in experiment [1] (setting [6]), 126.7 ± 9.2%.
